The results in this text go back to patent US11377444B2, “Pyridopyrimidine compounds acting as mTORC 1/2 dual inhibitors” (MEDSHINE DISCOVERY INC., priority 2017, dated 2022).

In general, IC50 refers to the concentration that gives 50% inhibition. A higher IC50 goes with weaker potency in that assay. For orientation: Kd means the equilibrium constant for the complex coming apart. Low values mean a tighter complex, high ones a looser complex. For orientation: AUC(0-inf) means total exposure, with the tail of the curve extrapolated. A low value points to less exposure. As a reminder, the AUC(0-t) is exposure summed from dosing to a finite time, without extrapolation to infinity. Read a high AUC(0-t) as more exposure. Usually half-life stands for the time needed for the level to fall by half in the phase considered. Lower therefore signals fast loss. In general, Cmax refers to the peak of the concentration-time curve. One may read the Tmax as the time from dosing to the highest level. Usually bioavailability stands for the share of a dose that reaches the circulation, judged against a reference dose that is usually intravenous. Read a low bioavailability as little systemic uptake.

Like-named read-outs stand apart in the source and are kept apart here.

The subject of one data set is MCF-7 cell. The data set can be described thus: Cell proliferation inhibitory activity (Cell-Titer-Glo), MCF-7. The note with it: Homo sapiens, MCF7, 72 h; 3 days incubation. In kind it is cell-based. From the text:
(§1) Experimental Embodiment 2: Evaluation of Cell Proliferation Inhibitory Activity
(§2) Experiment objective: To detect cell proliferation inhibitory activity of the tested compounds.
(§3) Experimental principle: The luciferase in the Cell-Titer-Glo reagent produces oxyluciferin using luciferin, oxygen and ATP as reaction substrates, and releases energy in the form of light. Since the reaction of luciferase requires ATP, the total amount of light generated by the reaction is proportional to the total amount of ATP that reflects cell viability.
(§4) Cell lines: MCF-7 cell line […], HT-29 cell line (ATCC-HTB-38), OE21 (ECACC-96062201), NCI-N87 cell line (ATCC-CRL-5822)
(§5) Cell culture medium: (RPMI 1640 culture medium (Invitrogen #1868546; 10% serum Invitrogen #1804958; L-glutamine 1×, Invitrogen #1830863; dual antibiotic Hyclone #J170012))
(§6) Cell Titer-Glo® Luminescent Cell Viability Assay Kit (Promega #G7573)
(§7) The cells were inoculated in a 384- or 96-well plate with a density of 1000 cells per well and 25 μL per well according to the instructions of the cell inoculating plate. The edge wells were not inoculated with cells, and was supplemented with […].
(§8) (i) The mother solution of the compound was 10 mM, and diluted with DMSO to an initial concentration of 4 mM. The compound was added to the compound mother solution, 9 μL per well.
(§9) (ii) The compound was diluted with ECHO liquid-handling workstation. Each well of the cell plate was added with 125 nL compound. Each well of the cell wells in 2nd column and 23rd column was added with 125 nL DMSO, and each of the PBS wells in 1st column and 24th column was added with 125 nL DMSO.
(§10) (iii) Each well of the cell plate was supplemented with 25 μL culture medium, the final volume in each well of the cell plate was 50 μL, […] 3 times dilution, 10 concentrations, each concentration was duplicated in left and right wells, the final DMSO concentration was 0.25%.
(§11) 2.3. After addition of the compound, centrifugation was performed at 1000 rpm for 1 min, and the cell plate was placed in a 37° C., 5% CO2 incubator for 3 days.
(§12) The cell plate was taken out from the incubator and equilibrated at room temperature for 30 minutes. 25 μL Cell-Titer-Glo reagent was added to each well, shaken for one minute to mix thoroughly, centrifuged at 1000 rpm for 1 minute. After 10 minutes, the plate was read on PerkinElmer Envision with a […] reading time was set at 0.2 second.

The target in data set [1] is T1, mTOR kinase (mTORC1 and mTORC2 kinase complex) (Homo sapiens, UniProt P42345).
T1 construct: purchased DiscoverX; host or cells: HEK-293
The data set can be described thus: In vitro evaluation of mTOR kinase inhibitory activity (DiscoverX ligand-bead competition binding, qPCR readout). As to the method:
Experimental Embodiment 1: In Vitro Evaluation of mTOR Kinase Inhibitory Activity This experiment was performed by DiscoverX. All materials and methods were obtained from DiscoverX.
Kinase activity analysis.
1. Labeled mTOR kinase was stably expressed in HEK-293 cells.
2. Streptavidin magnetic beads were treated with biotinylated small molecule ligands at room temperature for 30 minutes to produce affinity resin for kinase analysis;
3. Ligand beads were blocked with excess biotin and washed with buffer (1% bovine serum albumin, […]) to remove unbound ligand and non-specifically bound ligand;
4. The assembly of kinase and ligand and affinity beads, and the binding reaction between the compound and the three were performed in buffer (20% blocking buffer, 0.17x phosphate buffer, 0.05% Tween […]);
5. The test compounds were dissolved in dimethyl sulfoxide;
6. All test compounds were dissolved in DMSO, and then directly diluted […]
7. The solution was placed in a 384-well polypropylene plate, wherein the volume of each well was 0.02 mL;
8. The plate was shaked for an hour at room temperature;
9. The plate was washed with buffer (1× PBS, 0.05% Tween 20);
10. The affinity beads were resuspended in buffer (1× PBS, 0.05% Tween […] non-biotin affinity ligand) and incubated at room temperature for 30 minutes;
11. The kinase concentration in the eluate was deteced by qPCR.
Background: Quantitative PCR measures a nucleic acid by following its amplification.

The test system of a further data set is HT-29 cell. The data set can be described thus: Cell proliferation inhibitory activity (Cell-Titer-Glo), HT-29. It is filed as cell-based. Conditions: 3 days incubation.
Excerpt: as §1, §2, §3, §4, §5, §6, §7, §8, §9, §10, §11, §12

The test system of another data set is N87 cell. The data set can be described thus: Cell proliferation inhibitory activity (Cell-Titer-Glo), N87. Conditions: 72 h; 3 days incubation. In kind it is cell-based.
Excerpt: as §1, §2, §3, §4, §5, §6, §7, §8, §9, §10, §11, §12

The nature of data set [2]: Pharmacokinetic evaluation in plasma after IV and PO administration. It is filed as in vivo. The note with it: female Balb/c mice; for MRT inf: read-out: MRT0-inf; for MRT last: read-out: MRT0-last. As for the experimental part: Experimental Embodiment 3: Pharmacokinetic Evaluation
The test compound was mixed with […] (Cremophor EL), vortexed and sonicated to prepare a 1 mg/mL near-clear solution, which was filtered with a microporous filter membrane for future use. Female Balb/c mice of 18 to 20 grams were selected and the solution of the test compound was administered intravenously at a dose of 1 or 2 mg/kg. The test compound was mixed with an aqueous solution of 1% Tween 80, 9% polyethylene glycol 400, and 90% water, vortexed and sonicated to prepare 1 mg/mL near-clear solution, which was filtered with a microporous filter membrane for future use.
Female Balb/c mice of 18 to 20 grams were selected, and the solution of the test compound was orally administered at a dose of 2 or 10 mg/kg. The whole blood was collected at a certain time, and prepared into plasma. The drug concentration was analyzed by LC-MS/MS, and the pharmacokinetic parameters were calculated using Phoenix WinNonlin software (Pharsight Corporation, USA).

With `CNC(=O)c1cccc(-c2ccc3c(N4CCOC[C@@H]4C)nc(N4CCOC5(CCCC5)C4)nc3n2)c1` [Embodiment 24], the IC50 with MCF-7 cell was found to be 206 nM. This molecule also returned a Kd in data set [1] of 0.41 nM.
`CNC(=O)c1cccc(-c2ccc3c(N4CCOC[C@@H]4C)nc(N4CCOCC5(CC5)C4)nc3n2)c1` [Embodiment 39] returned an IC50 in the data set on MCF-7 cell of 268 nM.
In the data set with MCF-7 cell, `C[C@H]1COCCN1c1nc(N2CCOC3(CC3)C2)nc2nc(-c3cccc(C(=O)NC4CC4)c3)ccc12` [Embodiment 21] came in with a half-maximal inhibitory concentration (IC50) of 190 nM. The molecule also came in with a Kd in data set [1] of 0.47 nM.
As for `CNC(=O)c1cccc(-c2ccc3c(N4CCOCC4C)nc(N4CCOC5(CC(OC)C5)C4)nc3n2)c1` (single isomer, unassigned) [Embodiment 34-2], half-maximal inhibition in the data set with HT-29 cell (IC50) required 833 nM. Binding in data set [1] was put at a Kd of 0.73 nM.
The molecule `CNC(=O)c1cccc(-c2ccc3c(N4CCOC[C@@H]4C)nc(N4CCOCC5(CCC5)C4)nc3n2)c1` [Embodiment 37] displayed an IC50 in the data set with MCF-7 cell of 252 nM.
`CNC(=O)c1cccc(-c2ccc3c(N4CCOCC4C)nc(N4CC5(CCOC5)OCC4C)nc3n2)c1` (single isomer, unassigned) [Embodiment 48-2]: the midpoint of inhibition with MCF-7 cell, the IC50, lay at 176 nM. In addition, the affinity in data set [1], expressed as Kd, was 0.7 nM.
As for `COc1ccc(-c2ccc3c(N4CCOC[C@@H]4C)nc(N4CCOC5(CC5)C4)nc3n2)cc1CO` [Embodiment 54], in the data set on N87 cell, inhibition was half-maximal at 119 nM (IC50).
With `CNC(=O)c1cccc(-c2ccc3c(N4CCOCC4C)nc(N4CCOC5(CCOC5)C4)nc3n2)c1` (single isomer, unassigned) [Embodiment 32-1], in the data set on HT-29 cell (Homo sapiens, HT-29, 72 h), half-maximal inhibition (IC50) was put at 744 nM. Besides, binding in data set [1] was characterised by a dissociation constant (Kd) of 0.79 nM.
Consider `C[C@H]1COCCN1c1nc(N2CCOC3(COC3)C2)nc2nc(-c3cccc(C(N)=O)c3)ccc12` [Embodiment 52], for which half-maximal inhibition with MCF-7 cell (IC50) was put at 586 nM. For the same molecule, the Kd in data set [1] turned out to be 0.8 nM.
`CNC(=O)c1cccc(-c2ccc3c(N4CCOCC4C)nc(N4CCOC5(CCOC5)C4)nc3n2)c1` (single isomer, unassigned) [Embodiment 32-2] displayed an IC50 with HT-29 cell of 1410 nM. Also, binding in data set [1] was put at a Kd of 1.5 nM.
For the molecule `CNC(=O)c1cccc(-c2ccc3c(N4CC5CCC(C4)O5)nc(N4CCOC5(CC5)C4)nc3n2)c1` [Embodiment 26], the midpoint of inhibition in the data set with MCF-7 cell, the IC50, lay at 431 nM. The Kd in data set [1] came to 1 nM.
Take `CNC(=O)c1cc(-c2ccc3c(N4CCOC[C@@H]4C)nc(N4CCOC5(CC5)C4)nc3n2)ccc1OC` [Embodiment 55]: in data set [2] (IV 1 mg/kg), the AUCExtra came to 0.0522%, the AUMCExtra turned out to be 0.540% and the Tlast was found to be 12 h. In data set [2] (PO 2 mg/kg), this molecule registered an AUCExtra of 0.0673%, an AUMCExtra of 0.493% and a Tlast of 12.0 h. For the same molecule, in data set [2] (mouse, IV 1 mg/kg), the AUC(0-inf) is 9.47 µM·h, the AUC(0-t) worked out at 9.46 µM·h, the C0 stood at 9.7 µM and the clearance is 3.49 mL/min/kg. Besides, in data set [2] (mouse, IV 1 mg/kg), the half-life was 1.01 h, the MRT inf is 1.3 h and the MRT last came to 1.29 h. In data set [2] (mouse, IV 1 mg/kg, read-out: Vdss), the Vd was determined as 0.272 L/kg. For the same molecule, in data set [2] (mouse, PO 2 mg/kg), the AUC(0-inf) is 16.3 µM·h, the AUC(0-t) turned out to be 16.3 µM·h, the concentration peaked (Cmax) at 7.73 µM and the Tmax was 0.5 h. In addition, in data set [2] (mouse, PO 2 mg/kg), the bioavailability came to 86.1%, the half-life is 1.15 h, the MRT inf was 1.86 h and the MRT last came to 1.86 h. For the same molecule, the IC50 in the data set with N87 cell came out at 120 nM.
Regarding `CNC(=O)c1cccc(-c2ccc3c(N4C5CCC4COC5)nc(N4CCOC5(CC5)C4)nc3n2)c1` [Embodiment 9], in the data set with MCF-7 cell, the IC50 amounted to 262 nM. The same molecule returned a Kd in data set [1] of 0.34 nM.
In the data set on MCF-7 cell, `CC1COCCN1c1nc(N2CCOC3(CCOC3)C2)nc2nc(-c3cccc(C(N)=O)c3)ccc12` (single isomer, unassigned) [Embodiment 50-2] returned an IC50 of 636 nM. This molecule displayed a Kd in data set [1] of 0.7 nM.
`C[C@H]1COCCN1c1nc(N2CCOCC3(CCC3)C2)nc2nc(-c3cccc(C(N)=O)c3)ccc12` [Embodiment 36] returned a 50% inhibitory concentration (IC50) in the data set with MCF-7 cell of 360 nM.
Still for that read-out and setting: the value for `C[C@H]1COCCN1c1nc(N2CCOCC3(CC3)C2)nc2nc(-c3cccc(C(N)=O)c3)ccc12` [Embodiment 38] was 449 nM.
Molecule `CNC(=O)c1cccc(-c2ccc3c(N4CCOC[C@@H]4C)nc(N4CCOC5(CCOCC5)C4)nc3n2)c1` [Embodiment 13] showed a half-maximal inhibitory concentration (IC50) with MCF-7 cell of 255 nM. Also, the Kd in data set [1] came out at 0.64 nM.
`COc1ccc(-c2ccc3c(N4CCOC[C@@H]4C)nc(N4CCOC5(CC5)C4)nc3n2)cc1C(N)=O` [Embodiment 56] registered a concentration for half-maximal inhibition (IC50) with N87 cell of 167 nM.
`CNC(=O)c1cccc(-c2ccc3c(N4CCOCC4C)nc(N4CCOC5(CC(O)C5)C4)nc3n2)c1` (single isomer, unassigned) [Embodiment 33-1] showed an IC50 in the data set on HT-29 cell (Homo sapiens, HT-29, 72 h) of 1970 nM. For the same molecule, in data set [1], the Kd is 0.78 nM.
As to `CNC(=O)c1cccc(-c2ccc3c(N4CCOCC4C)nc(N4CCC5(CC4)OCCO5)nc3n2)c1` (centres unmarked) [Embodiment 12], in the data set with MCF-7 cell, the IC50 was determined as 251 nM. Besides, in data set [1], the Kd was 0.75 nM.
`CNC(=O)c1cccc(-c2ccc3c(N4CCOCC4C)nc(N4CCOC5(CC(OC)C5)C4)nc3n2)c1` (single isomer, unassigned) [Embodiment 34-1] had a concentration for half-maximal inhibition (IC50) in the data set with HT-29 cell (Homo sapiens, HT-29, 72 h) of 1050 nM. Further, binding in data set [1] was characterised by a dissociation constant (Kd) of 1 nM.
In the case of `CNC(=O)c1cccc(-c2ccc3c(N4CCOCC4C)nc(N4CCOC5(CC(O)C5)C4)nc3n2)c1` (single isomer, unassigned) [Embodiment 33-2], half-maximal inhibition in the data set on HT-29 cell (IC50) required 1250 nM. The affinity in data set [1], expressed as Kd, was 0.38 nM.
